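Values below derive from 48-hour exposures of cells grown in 96-well plates, with endpoints linearly interpolated between the two concentrations bracketing the appropriate inhibition level. TGI: concentration producing complete growth inhibition.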
Columns and labels:
Test in all cases: NCI-60 cell line screen, 48 h
[1] = test system: 786-0 renal
[2] = test system: A498 renal
[3] = test system: A549 NSCLC
[4] = test system: ACHN renal
[5] = test system: BT-549 breast
[6] = test system: CAKI-1 renal
[7] = test system: CCRF-CEM leukemia
[8] = test system: COLO 205 colon
[9] = test system: DU-145 prostate
[10] = test system: EKVX NSCLC
[11] = test system: HCC-2998 colon
[12] = test system: HCT-116 colon
[13] = test system: HCT-15 colon
[14] = test system: HL-60(TB) leukemia
[15] = test system: HOP-62 NSCLC
[16] = test system: HOP-92 NSCLC
[17] = test system: IGROV1 ovarian
[18] = test system: K-562 leukemia
[19] = test system: KM12 colon
[20] = test system: LOX IMVI melanoma
[21] = test system: M14 melanoma
[22] = test system: MCF7 breast
[23] = test system: MDA-MB-435
[24] = test system: MDA-N
[25] = test system: MOLT-4 leukemia
[26] = test system: NCI-H23 lung
[27] = test system: NCI-H460 lung
[28] = test system: NCI/ADR-RES ovarian
[29] = test system: OVCAR-3 ovarian
[30] = test system: OVCAR-4 ovarian
[31] = test system: OVCAR-5 ovarian
[32] = test system: OVCAR-8 ovarian
[33] = test system: PC-3 prostate
[34] = test system: RPMI-8226 leukemia
[35] = test system: RXF 393 renal
[36] = test system: SF-295 CNS
[37] = test system: SK-MEL-2 melanoma
[38] = test system: SK-MEL-28 melanoma
[39] = test system: SK-MEL-5 melanoma
[40] = test system: SK-OV-3 ovarian
[41] = test system: SN12C renal
[42] = test system: SNB-19 CNS
[43] = test system: SNB-75 CNS
[44] = test system: SR leukemia
[45] = test system: SW-620 colon
[46] = test system: T-47D breast
[47] = test system: TK-10 renal
[48] = test system: U251 CNS
[49] = test system: UACC-257 melanoma
[50] = test system: UACC-62 melanoma
[51] = test system: UO-31 renal
[52] = test system: HT29 colon
[53] = test system: MDA-MB-231 breast
[54] = test system: NCI-H226 lung
[55] = test system: SF-539 CNS
[56] = test system: MALME-3M melanoma
[57] = test system: NCI-H522 lung

COc1ccc2nc3n(c2c1)C(c1c(F)cccc1Cl)SC3 (stereo unspecified)
TGI [1]: > 100 µM | TGI [2]: > 100 µM | TGI [3]: > 100 µM | TGI [4]: > 100 µM | TGI [5]: > 100 µM | TGI [6]: > 100 µM | TGI [7]: > 100 µM | TGI [8]: > 100 µM | TGI [9]: > 100 µM | TGI [10]: > 100 µM | TGI [11]: > 100 µM | TGI [12]: > 100 µM | TGI [13]: > 100 µM | TGI [14]: > 100 µM | TGI [15]: > 100 µM | TGI [16]: > 100 µM | TGI [17]: > 100 µM | TGI [18]: > 100 µM | TGI [19]: > 100 µM | TGI [20]: > 100 µM | TGI [21]: > 100 µM | TGI [22]: > 100 µM | TGI [23]: > 100 µM | TGI [24]: > 100 µM | TGI [25]: > 100 µM | TGI [26]: > 100 µM | TGI [27]: > 100 µM | TGI [28]: > 100 µM | TGI [29]: > 100 µM | TGI [30]: > 100 µM | TGI [31]: > 100 µM | TGI [32]: > 100 µM | TGI [33]: > 100 µM | TGI [34]: > 100 µM | TGI [35]: > 100 µM | TGI [36]: > 100 µM | TGI [37]: > 100 µM | TGI [38]: > 100 µM | TGI [39]: > 100 µM | TGI [40]: > 100 µM | TGI [41]: > 100 µM | TGI [42]: > 100 µM | TGI [43]: > 100 µM | TGI [44]: > 100 µM | TGI [45]: > 100 µM | TGI [46]: > 100 µM | TGI [47]: > 100 µM | TGI [48]: > 100 µM | TGI [49]: > 100 µM | TGI [50]: > 100 µM | TGI [51]: > 100 µM

O=c1[nH]c2ccccc2c(O)c1/C=N/C(=S)NCCc1ccccc1
TGI [1]: > 100 µM | TGI [3]: > 100 µM | TGI [4]: > 100 µM | TGI [5]: > 100 µM | TGI [6]: > 100 µM | TGI [8]: > 100 µM | TGI [9]: > 100 µM | TGI [10]: > 100 µM | TGI [11]: > 100 µM | TGI [12]: > 100 µM | TGI [13]: > 100 µM | TGI [14]: > 100 µM | TGI [15]: > 100 µM | TGI [16]: > 100 µM | TGI [52]: > 100 µM | TGI [17]: > 100 µM | TGI [19]: > 100 µM | TGI [20]: > 100 µM | TGI [21]: > 100 µM | TGI [22]: > 100 µM | TGI [53]: > 100 µM | TGI [23]: > 100 µM | TGI [24]: > 100 µM | TGI [25]: > 100 µM | TGI [54]: > 100 µM | TGI [26]: > 100 µM | TGI [27]: > 100 µM | TGI [28]: > 100 µM | TGI [29]: > 100 µM | TGI [30]: > 100 µM | TGI [31]: > 100 µM | TGI [32]: > 100 µM | TGI [33]: > 100 µM | TGI [36]: > 100 µM | TGI [55]: > 100 µM | TGI [37]: > 100 µM | TGI [38]: > 100 µM | TGI [39]: > 100 µM | TGI [40]: > 100 µM | TGI [41]: > 100 µM | TGI [42]: > 100 µM | TGI [43]: > 100 µM | TGI [45]: > 100 µM | TGI [46]: > 100 µM | TGI [47]: > 100 µM | TGI [48]: > 100 µM | TGI [49]: > 100 µM | TGI [50]: > 100 µM | TGI [51]: > 100 µM

N#CC(C#N)N=Nc1ccc(-c2nc3ccccc3s2)cc1
TGI [1]: 22 µM | TGI [2]: 23.8 µM | TGI [4]: 15.2 µM | TGI [5]: 19.2 µM | TGI [6]: 20.7 µM | TGI [8]: 14 µM | TGI [9]: 19.6 µM | TGI [10]: 22.8 µM | TGI [12]: 13.6 µM | TGI [13]: 13.5 µM | TGI [16]: 4.64 µM | TGI [52]: 20.4 µM | TGI [17]: 22.2 µM | TGI [20]: 20.4 µM | TGI [21]: 32.1 µM | TGI [56]: 7.99 µM | TGI [22]: 14.9 µM | TGI [23]: 39.9 µM | TGI [24]: 63.1 µM | TGI [25]: 3.68 µM | TGI [26]: 8.72 µM | TGI [57]: 7.8 µM | TGI [28]: 15.2 µM | TGI [30]: 78.6 µM | TGI [31]: 50.5 µM | TGI [32]: 43.8 µM | TGI [33]: 10.1 µM | TGI [34]: 3.4 µM | TGI [35]: 15.8 µM | TGI [55]: 25.8 µM | TGI [37]: 16.7 µM | TGI [38]: 35.9 µM | TGI [39]: 9.37 µM | TGI [41]: 10.8 µM | TGI [43]: 54.8 µM | TGI [44]: 10.3 µM | TGI [45]: 22.7 µM | TGI [46]: 8.21 µM | TGI [47]: 11.3 µM | TGI [49]: 11.2 µM | TGI [51]: 21.8 µM

From PubChem BioAssay (NCI)
